From patent US20190079094A1, “SUBCELLULAR LOCALIZATION OF TARGET ANALYTES” (Beckman Coulter, Inc., priority 2016, published 2019)
Entries after “also recorded” stand apart in the source; their conditions may differ.

Assays:
Assay type in all cases: cell-based
[1] = tested on: CREB, RelA and ERK phosphorylation in monocytes; test: Stimulation of monocytes with LPS or GM-CSF, cytoplasmic vs. nuclear signaling; conditions: primarily cytoplasm, 1 μg/mL LPS or 100 ng/mL GM-CSF
Protocol: FIG. 8. Differential Signaling in Monocytes Induced by 1 μg/mL LPS vs. 100 ng/mL GM-CSF. A) Both LPS and GM-CSF induced CREB phosphorylation at S133, accumulating maximally in the nucleus by 10 min. B) LPS stimulation induced RelA phosphorylation maximally by 10 min in both the cytoplasm and nucleus, though predominantly in the nucleus. C) Both LPS and GM-CSF stimulated ERK phosphorylation primarily in the cytoplasm, maximally by 5 min for GM-CSF and 10 min for LPS.
The protocol for processing whole blood samples is as follows (see FIG. 1 for a workflow): 1) The sample is first mixed 1:1 with fixative, vortexed, and then incubated for 10 minutes. An extra control tube is included for each buffer, which is stained with all antibodies except for the specific signaling or target antibodies being tested in order to subtract the background signal. The background control may also be labeled with isotype-control antibodies for more precise determination of non-specific binding, especially in cells that have characteristically high non-specific binding, such as neutrophils. For indirect antibody labeling, omitting the primary antibody, but still utilizing the secondary antibody, is a common method for determining the degree of non-specific background signal attributable to the secondary antibody, which is typically higher than the direct conjugates of target antibodies. […] 6) Once stained, the samples are again washed 2× with PBS or wash buffer, resuspended in PBS+0.5% PFA, and read on a flow cytometer.
(§1) After data acquisition, the samples are gated, compensated, and analyzed as standard flow cytometry samples. […] For example, if staining for the subcellular distribution of FoxP3, where the Background MFIs for the Cytoplasm and Whole Cell are 1.5 and the raw FoxP3 signal is 3.5 and 31.5 for the Cytoplasm and Whole Cell, respectively, then the Cytoplasmic MFI would be calculated to be 2 (i.e., 3.5 (raw)−1.5 (background)=2) and the Nuclear MFI would be calculated to be 28 (i.e., 31.5 (raw)−1.5 (background)−2 (Cytoplasm)=28). […]

[2] = tested on: NF-κB and AKT signaling in whole-blood monocytes and T cells; test: LPS stimulation of whole blood, cytoplasmic vs. nuclear signaling; conditions: 1 μg/mL LPS
Protocol: FIGS. 7A and 7B. Stimulation of Monocytes with 1 μg/mL LPS. A) Comparison of the scatter profiles between Buffer 1 and Buffer 2 lysis, as well as the gating workflow. B) Cytoplasmic vs. nuclear signaling in whole-blood monocytes. C) Cytoplasmic vs. nuclear signaling in T cells.
The protocol for processing whole blood samples is as follows (see FIG. 1 for a workflow): 1) The sample is first mixed 1:1 with fixative, vortexed, and then incubated for 10 minutes. An extra control tube is included for each buffer, which is stained with all antibodies except for the specific signaling or target antibodies being tested in order to subtract the background signal. […] 6) Once stained, the samples are again washed 2× with PBS or wash buffer, resuspended in PBS+0.5% PFA, and read on a flow cytometer.
as §1

granulocytes = test: Detergent titration for differential permeabilization of granulocytes (HSP60, Lamin A/C); conditions: detergent alone
Text: FIG. 6. Titration of Detergents In Order to Identify the Optimal Concentrations for Cytoplasmic vs. Nuclear Membrane Permeabilization of Granulocytes. […] As in FIG. 5, HSP60 and Lamin A/C were used to indicate the degree of mitochondrial inner membrane and nuclear membrane permeabilization, respectively.
For Peripheral Blood Mononuclear Cells (PBMCs), cell lines, and other purified cells, Buffer 1 and Buffer 2 have different compositions than for whole blood; however, the protocol is otherwise the same. Most cell lines perform similar to PBMCs. In addition, whole-blood granulocytes may require a different buffer combination to appropriately permeabilize their cytoplasmic vs. nuclear compartments.
In some cases, using the defined buffers for the Subcellular Localization Kit may not effectively and reproducibly permeabilize granulocytes as they do mononuclear cells, and can be better targeted with a different detergent combination. […] Tween 20 at a concentration >0.5% can be seen to permeabilized the cytoplasmic+mitochondrial membranes without permeabilizing the nuclear membrane, while Digitonin and TX-100 alone at lower concentrations will permeabilize the nuclear or mitochondrial membranes, respectively. Ultimately, differential permeabilization of granulocytes can be more complex than for mononuclear cells depending on the target organelles.

Molecule	time of peak ERK phosphorylation (S202/T204) [1] [min]	signaling induced in T cells [2]	concentration permeabilizing the cytoplasmic+mitochondrial membranes without the nuclear membrane (granulocytes) [%]
lipopolysaccharide [LPS]	≤ 10	did not stimulate T cells; also recorded: lack of any signaling induced in T cells	–
CCCCCCCCCCCC(=O)OCCOCCOCCOCCOCCOCCOCCOCCOCCOCCOCCOCCOCCOCCOCCOCCOCCOCCOCCOCCOCC(OCCOCCOCCOCCOCCOCCOCCOCCOCCOCCOCCOCCOCCOCCOCCOCCOCCOCCOCCOCCO)C1OCC(OCCOCCOCCOCCOCCOCCOCCOCCOCCOCCOCCOCCOCCOCCOCCOCCOCCOCCOCCOCCO)C1OCCOCCOCCOCCOCCOCCOCCOCCOCCOCCOCCOCCOCCOCCOCCOCCOCCOCCOCCOCCO (stereo not drawn) [Tween 20, Polysorbate 20]	–	–	> 0.5
